In ChEMBL document CHEMBL4020815 (J Med Chem, 2017):
In brackets after ≈: the same amount, converted by molar mass.

Assays:
[1] = Plasma concentration in CD-1 mouse at 10 mg/kg, po after 1 hr by LC-MS/MS method; type: ADME, organism-based
[2] = Drug metabolism in microsomes (unknown origin); type: ADME, Microsome; settings: read-out: Drug metabolism
NCI-H460 = assay: Cytotoxicity against human NCI-H460 cells assessed as growth inhibition using low folate media after 7 days by Alamar blue assay; type: functional; settings: NCI-H460, 168 h
[3] = Equilibrium aqueous solubility of the compound at pH 7.5 after 20 hrs by HPLC method; type: physicochemical
[4] = Antitumor activity against human MDA-MB-231met2 cells xenografted in athymic nude mouse assessed as tumor volume at 60 mg/kg, bid administered via oral gavage for 22 days relative to control; type: functional
CYP2C9 = CYP2C9 (Homo sapiens, UniProt P11712); assay: Inhibition of human CYP2C9 at 10 uM relative to control; type: ADME
Mus musculus [5] = assay: Unbound clearance in CD-1 mouse at 1 mg/kg, iv by LC-MS/MS method; type: ADME, organism-based; settings: in vivo
Mus musculus [6] = assay: In vivo inhibition of AICARFT in tumor of athymic nude mouse xenografted with human MDA-MB-231met2 cells assessed as increase in AICAr levels at 30 mg/kg, bid administered via oral gavage for 22 days relative to control; type: functional
Mus musculus [7] = assay: In vivo inhibition of AICARFT in tumor of athymic nude mouse xenografted with human MDA-MB-231met2 cells assessed as increase in ZMP levels at 60 mg/kg, bid administered via oral gavage for 22 days relative to control; type: functional
Mus musculus [8] = assay: Unbound volume of distribution at steady state in CD-1 mouse at 1 mg/kg, iv by LC-MS/MS method; type: ADME, organism-based; settings: in vivo
Mus musculus [9] = assay: In vivo inhibition of AICARFT in tumor of athymic nude mouse xenografted with human MDA-MB-231met2 cells assessed as increase in AICAr levels at 60 mg/kg, bid administered via oral gavage for 22 days relative to control; type: functional
[10] = biological target: T1, Bifunctional methylenetetrahydrofolate dehydrogenase/cyclohydrolase, mitochondrial (Homo sapiens, UniProt P13995); assay: Inhibition of MTHFD2 (unknown origin) using NAD/5,10-methylene THF as substrate after 30 mins by HPLC method
T1 sequence (P13995 whole entry): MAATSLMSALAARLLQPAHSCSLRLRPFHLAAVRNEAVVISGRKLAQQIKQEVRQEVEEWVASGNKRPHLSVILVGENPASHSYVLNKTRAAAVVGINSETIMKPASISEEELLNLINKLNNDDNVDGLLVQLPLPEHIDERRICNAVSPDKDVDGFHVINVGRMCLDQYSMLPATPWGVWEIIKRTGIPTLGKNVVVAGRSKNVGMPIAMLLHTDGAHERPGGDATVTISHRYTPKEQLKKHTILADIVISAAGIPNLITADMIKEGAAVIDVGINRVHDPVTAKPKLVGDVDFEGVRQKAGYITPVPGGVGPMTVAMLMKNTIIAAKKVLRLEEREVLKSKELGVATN

MDA-MB-231 = assay: Cytotoxicity against human MDA-MB-231 cells assessed as growth inhibition using regular folate media after 7 days by Alamar blue assay; type: functional; settings: MDA-MB-231, 168 h
[11] = Oral bioavailability in CD-1 mouse at 10 mg/kg by LC-MS/MS method; type: ADME, organism-based; settings: in vivo

Sequence of CYP2C9 (P11712 whole entry): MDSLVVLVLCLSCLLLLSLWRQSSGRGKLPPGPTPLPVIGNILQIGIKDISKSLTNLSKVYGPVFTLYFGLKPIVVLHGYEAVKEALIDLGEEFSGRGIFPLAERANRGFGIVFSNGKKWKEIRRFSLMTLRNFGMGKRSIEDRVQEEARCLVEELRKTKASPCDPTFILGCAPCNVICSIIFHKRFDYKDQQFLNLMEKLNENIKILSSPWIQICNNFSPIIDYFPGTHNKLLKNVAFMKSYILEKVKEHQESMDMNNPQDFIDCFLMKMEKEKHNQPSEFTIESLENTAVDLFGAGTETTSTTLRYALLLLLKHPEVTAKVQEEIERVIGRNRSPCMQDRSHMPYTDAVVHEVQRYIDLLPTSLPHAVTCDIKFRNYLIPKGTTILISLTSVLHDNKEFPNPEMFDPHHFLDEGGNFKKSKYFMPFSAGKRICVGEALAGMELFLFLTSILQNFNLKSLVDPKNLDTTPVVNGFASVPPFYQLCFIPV

`O=c1[nH]ccc2cc(F)c(NS(=O)(=O)c3ccc(N4CC[C@@H](O)C4)s3)cc12` gave a concentration at 1 h [1] of 8.5 µM, a metabolised [2] of under 10% and a GI50 (NCI-H460) of 25 nM. For the same compound, the solubility thermodynamic at 20 h [3] was 20 µg/mL (≈ 48.8 µM), the Activity [4] was -1% and the inhibition at 10 µM (CYP2C9) was under 10%. The CL free (Mus musculus [5]) was 78 mL/min/kg, the “fold change (FC)” value (Mus musculus [6]) was 30 and the “fold change (FC)” value (Mus musculus [7]) was 16. For the same compound, the Vduss (Mus musculus [8]) was 12 L/kg, the “fold change (FC)” value (Mus musculus [9]) was 3 and the IC50 [10] was over 100000 nM. It also gave a GI50 (MDA-MB-231) of 44 nM and a bioavailability [11] of 25%.
